Experimental data taken from patent publication US10758513B2, “Modulators of mitochondrial protein import” (THE REGENTS OF THE UNIVERSITY OF CALIFORNIA, priority 2011, dated 2020).
In brackets after ≈: the same amount, converted by molar mass.

What was measured:
ALR = biological target: T1, ALR (Homo sapiens, UniProt P55789); test: In vitro ALR activity, Amplex Red-HRP assay; type: biochemical
T1 construct: Recombinant long form ALR, residues 1 to 205, was purified under native conditions; made in house
T1 sequence (P55789 whole entry, the tested form may be a part): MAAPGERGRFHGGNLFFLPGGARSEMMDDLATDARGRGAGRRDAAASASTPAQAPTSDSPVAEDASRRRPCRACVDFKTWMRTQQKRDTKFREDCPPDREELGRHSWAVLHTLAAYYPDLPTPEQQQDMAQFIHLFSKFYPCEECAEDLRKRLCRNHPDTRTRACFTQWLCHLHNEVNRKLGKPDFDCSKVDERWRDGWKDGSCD

[1] = Stability of MitoBloCK-6 in screening buffer by LC-MS; type: physicochemical; details: pH 3.4, 6.5, 7.4; room temperature, 1 hour
Experimental: MitoBloCK-6 at a final concentration of 3 mM was incubated with screening buffer (30 mM Hepes, 100 mM NaCl, 1 mM EDTA) at pH 3.4, 6.5, and 7.4 in a reaction volume of 100 μl at room temperature for 1 hour. The sample was injected into the LC-MS and retention was monitored. As a control, 20 mM MitoBloCK-6 in 1% DMSO was also analyzed.
LC-MS experiments were carried out on a Waters Acquity UPLC connected to a Waters LCT-Premier XE Time of Flight Instrument controlled by MassLynx 4.1 software. The mass spectrometer was equipped with a Multi-Mode Source operated in the electrospray mode. Briefly, samples of MitoBloCK-6, ES-1, and ES-2 were separated using an Acquity BEH C18 1.7 um column (2.1×50 mm, Waters) and were eluted with a gradient of 0.5 mL/min water/acetonitrile with 2, 80, and 95% acetonitrile at 0.5, 2.5 and 3.5 min, respectively. Mass spectra were recorded from 80 to 2000 Daltons. All solvents were LC-MS/MS Grade and purchased from Fisher Scientific.

zebrafish embryos = test: Zebrafish embryo development; type: in vivo
Experimental: Zebrafish used for o-dianisidine staining of red blood cells in DMSO and MitoBloCK-6 treated fish were albino lines generated from crosses of TL and TU fish. Line AB were injected with the ALR morpholino. Lines were maintained in a 14-hr light/10-hr dark cycle and mated for one hour to obtain synchronized embryonic development. […] Following treatment, embryos were imaged using a Leica MZ16F fluorescent stereoscope (TexasRed filter set) at 5× magnification. […] Embryos were allowed to mature to 2 dpf and then imaged like the MitoBloCK-6 treated embryos; embryos were imaged at day 2 because of concerns with morpholino dilution. Images were resized to 300 dpi without resampling using Adobe Photoshop software.

[2] = tested on: strains lacking the mitochondrial genome (rho null); test: Yeast growth inhibition, rho null strains; type: cell-based
Description: In general, a standard set of genetic and molecular techniques were used to generate the strains in this study (31, 32). Screening strains were generated based on previously characterized temperature sensitive mutants (see supplementary table 1). The snq1 and pdr5 deletions were introduced in each strain by strain mating with MDY326 or PCR-mediated deletion (33, 34). Overexpression strains were generated by transforming 2p yeast shuttle vectors carrying the gene of interest with the native promoter into the tim10-1 strain using a standard LiCl protocol (35). Transformed yeast was maintained on selective media appropriate for the plasmid's auxotrophic marker. Strains lacking mitochondrial DNA (rho null) were generated by two rounds of selection of the parent on YPD plates supplemented with ethidium bromide (40 μg/ml) followed by two rounds of single colony selection on YPD plates.
(§1) A primary screen was performed using freshly streaked tim10-1 diluted in YPD to an OD600 of approximately 0.0002 and kept on ice throughout the screening run. […] Each plate was shaken in a Beckman orbital shaker to resuspend settled cells, and the OD600 in each well was read by a Wallac Victor plate reader (Perkin Elmer). The top 600 growth inhibitory compounds were determined and assembled into two plates. […]

tim10-1 mutant = test: Yeast growth inhibition (MIC50), tim10-1 mutant; type: cell-based; details: Saccharomyces cerevisiae, read-out: MIC50 that inhibited growth of the tim10-1 mutant
Experimental: The screen was conducted with an integrated robotic system with plate scheduling. Briefly, diversity oriented commercial libraries of drug-like compounds from Chembridge and Asinex were screened against the tim10-1 strain at a concentration of approximately 10 μM. The screen encompassed a total of approximately 50,000 compounds dissolved in DMSO. Yeast in YPD medium was aliquoted into 384-well plates followed by compound addition with robotic pinning into the assay wells. DMSO was the vehicle for the small molecules, and several plate columns that contained only 1% DMSO were included as a control with the pinned compounds. As a negative control for growth, wells pinned with the mitochondrial uncoupler CCCP, which caused lethality, were also included. After 2 days of incubation at 25° C., cultures in each well were measured for optical density (O.D.) as a measure of growth. A typical reading for the positive control was OD600=0.8. […]
as §1

[3] = tested on: tim10-1 tim9S mitochondria; test: Membrane potential with rhodamine 123; type: biochemical, yeast; details: 25 μM MitoBloCK-1; CCCP as control
Experimental: Membrane potential measurement assays were conducted with a SPEX spectrofluorometer system (HORIBA Jobin Yvon) with a magnetically stirred cuvette held at 25° C. The quenching of rhodamine 123 fluorescence (Em, =530 nm and Ex=485 nm) was used as previously described (9) to detect changes in mitochondrial membrane potential. Purified tim10-1 tim9S mitochondrial aliquots were thawed and resuspended in respiration buffer (0.65 M mannitol, 0.3 mM EGTA, 3 mm tris-phosphate, 10 mM tris-maleate, pH 6.75). Trials were started by adding 100 nM of rhodamine 123 to respiration buffer. After a period of signal stabilization, mitochondria were added to a concentration of 100 μg/mL. Either drug or DMSO was then added to a final vehicle concentration of 1% following the establishment of baseline quenched fluorescence. Finally, mitochondria were uncoupled with 3 μM CCCP.

| SMILES | IC50 (ALR) [nM] | stability by LC-MS [1] | toxicity to fish (zebrafish embryos; concentrations higher than 2.5 μM) | decreased heart rate (zebrafish embryos; embryos treated with MitoBloCK-6 or ALR morpholino) [%] | sensitivity of rho null strains [2] | MIC50 (tim10-1 mutant) [µM] | rhodamine 123 fluorescence (membrane potential) [3] |
| --- | --- | --- | --- | --- | --- | --- | --- |
| Oc1c(Cl)cc(Cl)cc1/C=N/c1ccc(Nc2ccccc2)cc1 [MitoBloCK-6] | 700 | stable over this pH range | toxic to the fish | 50 |  |  |  |
| NC(=S)N/N=C/c1c(O)c(Br)cc2oc3c(c12)CCCC3 [MitoBloCK-1] |  |  |  |  | sensitive | ~1 (≈ 0.368 µg/mL) | did not change |
